Results reported in patent US20250230193A1, “CYCLIC COMPOUND HAVING SELECTIVE KRAS INHIBITORY EFFECT ON HRAS AND NRAS” (CHUGAI SEIYAKU KABUSHIKI KAISHA, priority 2022, published 2025).
Where a SMILES comes first, the peptide text is derived from it. Bridges are numbered along the chain shown (N, C = ends). [ ]: non-standard residue; d: D form. The star is where a group is joined. hPhe(3-Cl-4-CF3) = N[C@@H](CCc1ccc(C(F)(F)F)c(Cl)c1)C(=O)O; NPrPhe(4-CF3) = CCCN[C@@H](Cc1ccc(C(F)(F)F)cc1)C(=O)O; NMeGly(cPent) = CN[C@H](C(=O)O)C1CCCC1; NMeD = CN[C@@H](CC(=O)O)C(=O)O; NMeL = CN[C@@H](CC(C)C)C(=O)O; NMeAbu = CC[C@H](NC)C(=O)O; Morpholide = C1CN(*)CCO1; NMeA = CN[C@@H](C)C(=O)O; Aze = O=C(O)[C@@H]1CCN1; Ac4c = NC1(C(=O)O)CCC1; Ac3c = NC1(C(=O)O)CC1; Sar = CNCC(=O)O

Key:
[1] = target: GDP-bound HRAS wild-type protein (Homo sapiens, UniProt P01112); experiment: Binding to HRAS by surface plasmon resonance (SPR), Single Cycle Kinetics; conditions: for HRAS/KRAS (ratio of KD value for HRAS to KD value for KRAS) / HRAS/KRAS (ratio of KD value with respect to HRAS to KD value with respect to KRAS): GDP-bound HRAS wild-type vs GDP-bound KRAS wild-type
[2] = target: GDP-bound NRAS wild-type protein (Homo sapiens, UniProt P01111); experiment: Binding to NRAS by surface plasmon resonance (SPR), Single Cycle Kinetics; conditions: for NRAS/KRAS (ratio of KD value for NRAS to KD value for KRAS) / NRAS/KRAS (ratio of KD value with respect to NRAS to KD value with respect to KRAS): GDP-bound NRAS wild-type vs GDP-bound KRAS wild-type
[3] = KD ratio HRAS/KRAS, class symbols
[4] = KD ratio NRAS/KRAS, class symbols

Chain of GDP-bound NRAS wild-type protein (P01111 whole entry): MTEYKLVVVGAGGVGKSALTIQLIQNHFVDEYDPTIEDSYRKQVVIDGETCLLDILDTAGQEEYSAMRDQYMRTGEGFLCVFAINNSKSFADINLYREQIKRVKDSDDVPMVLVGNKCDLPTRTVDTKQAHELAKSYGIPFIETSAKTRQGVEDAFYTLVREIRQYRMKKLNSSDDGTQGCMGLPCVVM
Chain of GDP-bound HRAS wild-type protein (P01112 whole entry): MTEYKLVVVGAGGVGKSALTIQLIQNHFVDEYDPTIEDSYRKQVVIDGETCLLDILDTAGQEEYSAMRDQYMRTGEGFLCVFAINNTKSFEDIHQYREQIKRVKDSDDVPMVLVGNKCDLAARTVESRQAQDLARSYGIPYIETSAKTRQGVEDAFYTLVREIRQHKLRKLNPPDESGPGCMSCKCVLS

## CCC[C@H]1C(=O)N[C@@H]([C@@H](C)CC)C(=O)N(C)CC(=O)N(C)[C@H]2C/C=C\CCN(C2=O)[C@@H](Cc2ccc(C(F)(F)F)cc2)C(=O)N(C)CC(=O)N[C@@H](CCc2cc(F)c(C(F)(F)F)c(F)c2)C(=O)N2C[C@H](OCC)C[C@H]2C(=O)NC2(CC(C)(C)C2)C(=O)N(C)[C@@H](C2CCCC2)C(=O)N(C)[C@H](C(=O)N(C)C)CC(=O)N1C [PP1645]
[1]; KD ratio, SPR
  HRAS/KRAS (ratio of KD value for HRAS to KD value for KRAS): A (a compound having 10 or more and less than 20 is denoted as A)
[2]; KD ratio, SPR
  NRAS/KRAS (ratio of KD value for NRAS to KD value for KRAS): A (a compound having 10 or more and less than 20 is denoted as A)

## CCCN1C(=O)CN(C)C(=O)CN(C)C(=O)[C@H]([C@@H](C)CC)NC(=O)[C@H](CC(C)C)N(C)C(=O)C[C@@H](C(=O)N(C)C)N(C)C(=O)[C@H](C2CCCC2)N(C)C(=O)C2(CCC2)NC(=O)[C@@H]2CCCN2C(=O)[C@H](CCc2ccc(C(F)(F)F)c(Cl)c2)NC(=O)CN(C)C(=O)[C@@H]1Cc1ccc(C(F)(F)F)cc1 [PP0412] ([NMeL]I[Sar][Sar][NPrPhe(4-CF3)][Sar][hPhe(3-Cl-4-CF3)]P[Ac4c][NMeGly(cPent)][NMeD]-NMe2; lactam N-11)
[1]; KD ratio HRAS/KRAS, SPR
  HRAS/KRAS (ratio of KD value with respect to GDP-bound HRAS wild-type protein to KD value with respect to KRAS): C (A compound having a KD ratio of 0.1 or more and less than 3 is denoted as C)
[2]; KD ratio NRAS/KRAS, SPR
  NRAS/KRAS (ratio of KD value with respect to GDP-bound NRAS wild-type protein to KD value with respect to KRAS): B (a compound having 3 or more and less than 10 is denoted as B)

## C=CC[C@H]1C(=O)N[C@@H]([C@@H](C)CC)C(=O)N(C)CC(=O)N(C)[C@H]2CCCCN(C2=O)[C@@H](Cc2ccc(C(F)(F)F)cc2)C(=O)N(C)CC(=O)N[C@@H](CCc2cc(F)c(C(F)(F)F)c(F)c2)C(=O)N2C[C@H](OCC)C[C@H]2C(=O)N[C@](C)(CC=C)C(=O)N(C)[C@@H](C2CCCC2)C(=O)N(C)[C@H](C(=O)N2CCOCC2)CC(=O)N1C [PP0874]
[1]; KD ratio, SPR
  HRAS/KRAS (ratio of KD value with respect to HRAS to KD value with respect to KRAS): B (a compound having 3 or more and less than 10 is denoted as B)
[2]; KD ratio, SPR
  NRAS/KRAS (ratio of KD value with respect to NRAS to KD value with respect to KRAS): C (A compound having a KD ratio of 0.1 or more and less than 3 is denoted as C)

## CCC[C@H]1C(=O)N[C@@H]([C@@H](C)CC)C(=O)N(C2CC2)CC(=O)N(C)[C@H]2C/C=C\CCN(C2=O)[C@@H](Cc2ccc(C(F)(F)F)cc2)C(=O)N(C)CC(=O)N[C@@H](CCc2ccc(C(F)(F)F)c(OC)c2)C(=O)N2C[C@H](OCC)C[C@H]2C(=O)NC2(CC(C)(C)C2)C(=O)N(C)[C@@H](CC(C)(C)C)C(=O)N(C)[C@H](C(=O)N(C)C)CC(=O)N1C [PP2746]
[1]; [3]
  HRAS/KRAS (ratio of KD value with respect to GDP-bound HRAS wild-type protein to KD value with respect to KRAS): A (a compound having 10 or more and less than 20 is denoted as A)
[2]; [4]
  NRAS/KRAS (ratio of KD value with respect to GDP-bound NRAS wild-type protein to KD value with respect to KRAS): A (a compound having 10 or more and less than 20 is denoted as A)

## CCO[C@@H]1C[C@H]2C(=O)NC3(CC(C)(C)C3)C(=O)N(C)[C@@H](C3CCCC3)C(=O)N(C)[C@H](C(=O)N(C)C)CC(=O)N(C)[C@H]3CCCCCc4ccc(cc4)C[C@@H](C(=O)N(C)CC(=O)N[C@@H](CCc4ccc(C(F)(F)F)c(OC)c4)C(=O)N2C1)N1CC/C=C\C[C@@H](C1=O)N(C)C(=O)CN(C1CC1)C(=O)[C@H]([C@@H](C)CC)NC3=O [PP3075]
[1]; KD ratio HRAS/KRAS, SPR, GDP-bound wild-type proteins
  HRAS/KRAS (ratio of KD value with respect to GDP-bound HRAS wild-type protein to KD value with respect to KRAS): A (a compound having 10 or more and less than 20 is denoted as A)
[2]; KD ratio NRAS/KRAS, SPR, GDP-bound wild-type proteins
  NRAS/KRAS (ratio of KD value with respect to GDP-bound NRAS wild-type protein to KD value with respect to KRAS): A (a compound having 10 or more and less than 20 is denoted as A)

## CCO[C@@H]1C[C@H]2C(=O)NC3(CCC3)C(=O)N(C)[C@@H](C3CCCC3)C(=O)N(C)[C@H](C(=O)N(C)C)CC(=O)N(C)[C@@H](CC(C)C)C(=O)N[C@@H]([C@@H](C)CC)C(=O)N(C)CC(=O)N(C)[C@H]3C[C@@H](C)CCN(C3=O)[C@@H](Cc3ccc(C(F)(F)F)cc3)C(=O)N(C)CC(=O)N[C@@H](CCc3cc(F)c(C(F)(F)F)c(F)c3)C(=O)N2C1 [PP1018]
[1]; KD ratio, SPR
  HRAS/KRAS (ratio of KD value with respect to HRAS to KD value with respect to KRAS): B (a compound having 3 or more and less than 10 is denoted as B)
[2]; KD ratio, SPR
  NRAS/KRAS (ratio of KD value with respect to NRAS to KD value with respect to KRAS): C (A compound having a KD ratio of 0.1 or more and less than 3 is denoted as C)

## CCO[C@@H]1C[C@H]2C(=O)NC3(CCC3)C(=O)N(C)[C@@H](C3CCCC3)C(=O)N(CCC3CCC3)[C@H](C(=O)N3CCOCC3)CC(=O)N(C)[C@@H](CC(C)C)C(=O)N[C@@H]([C@@H](C)CC)C(=O)N(C)CC(=O)N(C)[C@H]3CCCCCN(C3=O)[C@@H](Cc3ccc(C(F)(F)F)cc3)C(=O)N(C)CC(=O)N[C@@H](CCc3cc(F)c(C(F)(F)F)c(F)c3)C(=O)N2C1 [PP0640]
[1]; KD ratio HRAS/KRAS, SPR
  HRAS/KRAS (ratio of KD value with respect to GDP-bound HRAS wild-type protein to KD value with respect to KRAS): B (a compound having 3 or more and less than 10 is denoted as B)
[2]; KD ratio NRAS/KRAS, SPR
  NRAS/KRAS (ratio of KD value with respect to GDP-bound NRAS wild-type protein to KD value with respect to KRAS): B (a compound having 3 or more and less than 10 is denoted as B)

## CCCOC[C@H]1C(=O)N[C@@H]([C@@H](C)CC)C(=O)N(C)CC(=O)N(C)[C@H]2C/C=C\CCN(C2=O)[C@@H](CC2CCC(F)(F)CC2)C(=O)N(C)CC(=O)N[C@@H](CCc2ccc(C(F)(F)F)c(OC)c2)C(=O)N2C[C@@H](C)C[C@H]2C(=O)NC2(CC(C)(C)C2)C(=O)N(C)[C@@H](C(CC)CC)C(=O)N(C)[C@H](C(=O)N(C)C)CC(=O)N1C [PP2483]
[1]; SPR
  HRAS/KRAS (ratio of KD value with respect to HRAS to KD value with respect to KRAS): A (a compound having 10 or more and less than 20 is denoted as A)
[2]; SPR
  NRAS/KRAS (ratio of KD value with respect to NRAS to KD value with respect to KRAS): A (a compound having 10 or more and less than 20 is denoted as A)

## CCCN1C(=O)[C@@H]2CCN2C(=O)[C@H](C)N(C)C(=O)[C@H]([C@@H](C)CC)NC(=O)[C@H](CC(C)C)N(C)C(=O)C[C@@H](C(=O)N2CCOCC2)N(C)C(=O)[C@H](C2CCCC2)N(C)C(=O)C2(CC2)NC(=O)[C@@H]2CCCN2C(=O)[C@H](CCc2ccc(C(F)(F)F)c(Cl)c2)NC(=O)CN(C)C(=O)[C@@H]1Cc1ccc(C(F)(F)F)cc1 [PP0224] ([NMeL]I[NMeA][Aze][NPrPhe(4-CF3)][Sar][hPhe(3-Cl-4-CF3)]P[Ac3c][NMeGly(cPent)][NMeD]-Morpholide; lactam N-11)
[1]; KD ratio HRAS/KRAS, SPR
  HRAS/KRAS (ratio of KD for GDP-bound HRAS wild-type to KD for KRAS): B (a compound having 3 or more and less than 10 is denoted as B)
[2]; KD ratio NRAS/KRAS, SPR
  NRAS/KRAS (ratio of KD for GDP-bound NRAS wild-type to KD for KRAS): C (A compound having a KD ratio of 0.1 or more and less than 3 is denoted as C)

## CCC(CC)[C@H]1C(=O)N(C)[C@H](C(=O)N(C)C)CC(=O)N(C)[C@H]2CCC/C=C/c3ccc(cc3)C[C@@H](C(=O)N(C)CC(=O)N[C@@H](CCc3cc(F)c(C(F)(F)F)c(F)c3)C(=O)N3CCC[C@H]3C(=O)NC3(CC(C)(C)C3)C(=O)N1C)N1CC/C=C\C[C@@H](C1=O)N(C)C(=O)CN(C)C(=O)[C@H]([C@@H](C)CC)NC2=O [PP2600]
[1]; [3]
  HRAS/KRAS (ratio of KD value with respect to GDP-bound HRAS wild-type protein to KD value with respect to KRAS): A (a compound having 10 or more and less than 20 is denoted as A)
[2]; [4]
  NRAS/KRAS (ratio of KD value with respect to GDP-bound NRAS wild-type protein to KD value with respect to KRAS): A (a compound having 10 or more and less than 20 is denoted as A)

## CCCN1C(=O)CN(C)C(=O)CN(C)C(=O)[C@H]([C@@H](C)CC)NC(=O)[C@H](CC(C)C)N(C)C(=O)C[C@@H](C(=O)N2CCOCC2)N(C)C(=O)[C@H](C2CCCC2)N(C)C(=O)C2(CCC2)NC(=O)[C@H](CC)N(C)C(=O)[C@H](CCc2ccc(C(F)(F)F)c(Cl)c2)NC(=O)CN(C)C(=O)[C@@H]1Cc1ccc(C(F)(F)F)cc1 [PP1918] ([NMeL]I[Sar][Sar][NPrPhe(4-CF3)][Sar][hPhe(3-Cl-4-CF3)][NMeAbu][Ac4c][NMeGly(cPent)][NMeD]-Morpholide; lactam N-11)
[1]; KD ratio, SPR
  HRAS/KRAS (ratio of KD value for HRAS to KD value for KRAS): C (A compound having a KD ratio of 0.1 or more and less than 3 is denoted as C)
[2]; KD ratio, SPR
  NRAS/KRAS (ratio of KD value for NRAS to KD value for KRAS): B (a compound having 3 or more and less than 10 is denoted as B)
